{"source": "patent US10966996B2", "about": "“Glechoma longitube extract, preparation method for same, and use thereof in sugar reduction, weight loss, and lipid reduction” (SHANGHAI INSTITUTE OF MATERIA MEDICA CHINESE ACADEMY OF …, priority 2014, dated 2021)", "test_system": "db/db mice", "experiment": "long term administration of Compound I in db/db mice", "type": "in vivo", "details": "50 mg/kg once a day", "experimental": "After the end of the acute experiment, each group of mice undergone long term administration experiment following the grouping in below: equal volume of distilled water was given to control group of mice; Compound I at the dosage of 50 mg/kg was given to administration group; DDP4 inhibitor, Sitagliptin, at 10 mg/kg was intragastric administrated to positive control group. Dosage volume was 10 ml/kg, once a day for 4 weeks. Weight, blood glucose, and dietary change of the mice were monitored every week. The improvement of diabetic symptom of spontaneous diabetes mellitus type 2 model db/db mice by long term administration of Compound I was evaluated.", "key": {"[1]": {"details": "two weeks after the administration"}}, "note": "“Also recorded” adds a separate entry of the source."}
{"smiles": "O=C(O)C1O[C@@H](OC2C(O)[C@H](O)C(C(=O)O)O[C@H]2Oc2cc(O)c3c(=O)cc(-c4ccc(O)c(O)c4)oc3c2)C(O)C(O)[C@@H]1O", "note": "(stereo partly drawn) [Compound I, luteolin-7-O-[β-glucuronosyl(1→2)β-glucuronic acid]]", "values": [{"measurement": "weight and diet of the mice", "result": "did not significantly affect the weight and diet of the mice"}, {"measurement": "fasting blood glucose", "setting": "[1]", "result": "significantly decreased; also recorded: lowered fasting blood glucose of mice"}, {"measurement": "instant blood glucose", "setting": "[1]", "result": "significantly decreased; also recorded: lowered instant blood glucose of mice"}]}
